What all share (experiment): Kinase selectivity, DiscoverX scanMAX Kinase assay panel (% control)
What all share (assay type): binding

The target in test [1] is T1, kinases of the scanMAX Kinase assay panel (Homo sapiens, UniProt O94921).
T1 construct: purchased DiscoverX Co. (contract measurement) scanMAX Kinase assay panel
The note with it: PFTK1; 1 uM. In a few lines:
(§1)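 Binding-panel profiling at one concentration, 1 uM in DMSO; values are % of DMSO control after subtracting the positive-control floor. Less than 35% means activity on that kinase.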

Test [2] deals with T2, kinases of the scanMAX Kinase assay panel (Homo sapiens, UniProt P00533, L861Q).
T2 construct: purchased DiscoverX Co. (contract measurement) scanMAX Kinase assay panel
To be noted: EGFR(L861Q); 1 uM. In a few lines:
as §1

For test [3], the target named is T3, kinases of the scanMAX Kinase assay panel (Homo sapiens, UniProt P07948).
T3 construct: purchased DiscoverX Co. (contract measurement) scanMAX Kinase assay panel
To be noted: LYN; 1 uM. The method in brief:
as §1

Test [4] deals with T4, kinases of the scanMAX Kinase assay panel (Homo sapiens, UniProt P42679).
T4 construct: purchased DiscoverX Co. (contract measurement) scanMAX Kinase assay panel
T4 sequence (P42679 1-507): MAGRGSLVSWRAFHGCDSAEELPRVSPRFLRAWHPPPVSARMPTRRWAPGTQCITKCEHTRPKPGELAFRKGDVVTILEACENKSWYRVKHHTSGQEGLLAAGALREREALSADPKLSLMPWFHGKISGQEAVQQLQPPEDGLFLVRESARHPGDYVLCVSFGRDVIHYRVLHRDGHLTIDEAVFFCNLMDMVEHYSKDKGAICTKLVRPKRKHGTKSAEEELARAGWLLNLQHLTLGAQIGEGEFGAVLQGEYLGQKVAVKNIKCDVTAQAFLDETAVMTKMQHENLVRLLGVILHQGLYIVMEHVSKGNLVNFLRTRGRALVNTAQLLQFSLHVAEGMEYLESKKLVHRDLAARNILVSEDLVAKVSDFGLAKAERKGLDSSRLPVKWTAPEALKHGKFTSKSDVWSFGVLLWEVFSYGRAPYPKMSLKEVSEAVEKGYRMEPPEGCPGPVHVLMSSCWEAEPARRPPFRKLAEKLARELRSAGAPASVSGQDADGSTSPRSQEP
To be noted: CTK; 1 uM. The method in brief:
as §1

Test [5] concerns the target T5, kinases of the scanMAX Kinase assay panel (Homo sapiens, UniProt P49840).
T5 construct: purchased DiscoverX Co. (contract measurement) scanMAX Kinase assay panel
The note with it: GSK3A; 1 uM. The method in brief: as §1

Test [6] deals with T6, kinases of the scanMAX Kinase assay panel (Homo sapiens, UniProt Q07002).
T6 construct: purchased DiscoverX Co. (contract measurement) scanMAX Kinase assay panel
To be noted: PCTK3; 1 uM. In a few lines:
as §1

Test [7] deals with T7, kinases of the scanMAX Kinase assay panel (Homo sapiens, UniProt Q13188).
T7 construct: purchased DiscoverX Co. (contract measurement) scanMAX Kinase assay panel
T7 sequence (Q13188 1-491): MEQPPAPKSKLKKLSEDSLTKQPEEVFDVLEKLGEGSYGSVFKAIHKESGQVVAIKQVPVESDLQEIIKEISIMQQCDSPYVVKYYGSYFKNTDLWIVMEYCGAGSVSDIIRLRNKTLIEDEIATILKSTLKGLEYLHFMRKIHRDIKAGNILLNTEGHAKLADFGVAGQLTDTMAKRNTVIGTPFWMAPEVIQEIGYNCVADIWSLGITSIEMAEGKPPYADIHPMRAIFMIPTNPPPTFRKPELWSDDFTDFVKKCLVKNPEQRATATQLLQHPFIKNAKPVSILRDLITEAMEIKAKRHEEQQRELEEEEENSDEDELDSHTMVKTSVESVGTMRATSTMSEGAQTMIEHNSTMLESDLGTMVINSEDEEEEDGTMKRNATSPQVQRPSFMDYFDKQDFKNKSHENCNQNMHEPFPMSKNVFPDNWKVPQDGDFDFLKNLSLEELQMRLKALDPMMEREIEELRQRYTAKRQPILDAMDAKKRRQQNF
The note with it: MST2; 1 uM. The method in brief: as §1

Test [8] has as its target T8, kinases of the scanMAX Kinase assay panel (Homo sapiens, UniProt Q8TF76).
T8 construct: purchased DiscoverX Co. (contract measurement) scanMAX Kinase assay panel
T8 sequence (Q8TF76 1-798): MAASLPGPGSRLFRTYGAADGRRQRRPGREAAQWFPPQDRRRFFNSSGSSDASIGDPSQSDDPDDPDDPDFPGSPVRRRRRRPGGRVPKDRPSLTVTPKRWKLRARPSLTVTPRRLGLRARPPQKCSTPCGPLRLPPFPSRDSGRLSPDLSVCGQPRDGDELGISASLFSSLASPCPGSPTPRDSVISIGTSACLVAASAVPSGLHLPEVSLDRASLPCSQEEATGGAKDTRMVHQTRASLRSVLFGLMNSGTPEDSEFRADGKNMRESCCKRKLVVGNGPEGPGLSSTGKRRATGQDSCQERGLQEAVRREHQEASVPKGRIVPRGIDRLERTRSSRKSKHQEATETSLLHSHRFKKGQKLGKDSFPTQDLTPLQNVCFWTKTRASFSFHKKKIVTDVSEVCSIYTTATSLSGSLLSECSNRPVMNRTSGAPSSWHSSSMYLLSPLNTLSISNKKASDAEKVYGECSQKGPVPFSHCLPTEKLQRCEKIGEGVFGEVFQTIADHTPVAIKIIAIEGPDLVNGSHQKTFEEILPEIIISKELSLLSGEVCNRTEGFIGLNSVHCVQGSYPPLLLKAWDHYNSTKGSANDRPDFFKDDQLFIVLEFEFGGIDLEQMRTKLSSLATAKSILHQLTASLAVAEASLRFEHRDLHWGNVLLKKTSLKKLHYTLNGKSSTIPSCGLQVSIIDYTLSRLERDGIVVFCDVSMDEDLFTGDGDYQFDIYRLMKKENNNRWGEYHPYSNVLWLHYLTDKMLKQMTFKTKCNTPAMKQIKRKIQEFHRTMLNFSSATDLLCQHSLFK
The note with it: HASPIN; 1 uM. The method in brief:
as §1

Test [9] concerns the target T9, kinases of the scanMAX Kinase assay panel (Homo sapiens, UniProt Q9H1R3).
T9 construct: purchased DiscoverX Co. (contract measurement) scanMAX Kinase assay panel
To be noted: MYLK2; 1 uM. The method in brief:
as §1

For test [10], the target named is T10, kinases of the scanMAX Kinase assay panel (Homo sapiens, UniProt Q9H3Y6).
T10 construct: purchased DiscoverX Co. (contract measurement) scanMAX Kinase assay panel
The note with it: kinase SRMS; 1 uM in DMSO. The method in brief: as §1

In test [11] the target is T11, kinases of the scanMAX Kinase assay panel (Homo sapiens, UniProt Q9HC98).
T11 construct: purchased DiscoverX Co. (contract measurement) scanMAX Kinase assay panel
To be noted: NEK6; 1 uM. The method in brief:
as §1

The target of test [12] is T12, kinases of the scanMAX Kinase assay panel (Homo sapiens, UniProt Q9Y6R4).
T12 construct: purchased DiscoverX Co. (contract measurement) scanMAX Kinase assay panel
To be noted: MAP3K4; 1 uM. In a few lines:
as §1

T12 sequence (Q9Y6R4 whole entry): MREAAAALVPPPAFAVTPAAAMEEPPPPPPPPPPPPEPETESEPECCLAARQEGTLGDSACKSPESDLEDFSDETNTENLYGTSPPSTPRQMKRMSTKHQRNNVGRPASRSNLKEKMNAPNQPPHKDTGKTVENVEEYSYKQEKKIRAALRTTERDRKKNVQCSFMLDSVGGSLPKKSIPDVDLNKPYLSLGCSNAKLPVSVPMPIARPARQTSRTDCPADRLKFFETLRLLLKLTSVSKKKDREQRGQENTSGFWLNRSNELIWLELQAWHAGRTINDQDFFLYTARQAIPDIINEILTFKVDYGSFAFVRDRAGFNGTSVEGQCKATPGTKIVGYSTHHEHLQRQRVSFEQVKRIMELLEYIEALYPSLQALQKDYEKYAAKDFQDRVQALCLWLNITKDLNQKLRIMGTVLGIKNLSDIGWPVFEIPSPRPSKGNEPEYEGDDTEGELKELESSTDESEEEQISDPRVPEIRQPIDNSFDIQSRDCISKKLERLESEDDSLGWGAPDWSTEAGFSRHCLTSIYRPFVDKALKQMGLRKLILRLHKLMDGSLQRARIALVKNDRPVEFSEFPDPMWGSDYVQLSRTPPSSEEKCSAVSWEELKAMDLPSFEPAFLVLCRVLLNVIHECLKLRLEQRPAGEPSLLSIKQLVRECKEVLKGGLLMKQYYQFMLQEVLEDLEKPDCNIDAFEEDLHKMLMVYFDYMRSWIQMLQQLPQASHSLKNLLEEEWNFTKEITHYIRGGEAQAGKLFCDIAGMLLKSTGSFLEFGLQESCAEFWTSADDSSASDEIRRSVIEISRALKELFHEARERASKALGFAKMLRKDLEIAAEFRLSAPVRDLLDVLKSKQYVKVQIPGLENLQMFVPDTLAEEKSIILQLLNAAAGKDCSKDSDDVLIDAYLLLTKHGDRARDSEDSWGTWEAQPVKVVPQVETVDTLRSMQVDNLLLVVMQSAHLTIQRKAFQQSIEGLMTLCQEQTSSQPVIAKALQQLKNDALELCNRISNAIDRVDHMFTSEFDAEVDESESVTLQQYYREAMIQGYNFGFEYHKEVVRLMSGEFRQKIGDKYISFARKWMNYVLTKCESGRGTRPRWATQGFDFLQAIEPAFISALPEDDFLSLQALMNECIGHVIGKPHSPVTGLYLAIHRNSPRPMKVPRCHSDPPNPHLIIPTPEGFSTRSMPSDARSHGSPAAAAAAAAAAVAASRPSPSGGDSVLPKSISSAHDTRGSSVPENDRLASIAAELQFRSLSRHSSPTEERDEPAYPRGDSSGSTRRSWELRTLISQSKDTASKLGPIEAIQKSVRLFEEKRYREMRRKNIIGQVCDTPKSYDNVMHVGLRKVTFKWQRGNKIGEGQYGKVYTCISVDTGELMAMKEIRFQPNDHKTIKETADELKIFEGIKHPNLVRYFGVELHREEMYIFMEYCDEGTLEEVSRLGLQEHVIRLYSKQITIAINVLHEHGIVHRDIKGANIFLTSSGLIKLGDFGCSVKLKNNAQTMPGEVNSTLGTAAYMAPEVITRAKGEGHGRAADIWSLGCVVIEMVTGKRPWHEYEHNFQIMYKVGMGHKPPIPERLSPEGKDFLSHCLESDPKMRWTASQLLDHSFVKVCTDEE
T10 sequence (Q9H3Y6 whole entry): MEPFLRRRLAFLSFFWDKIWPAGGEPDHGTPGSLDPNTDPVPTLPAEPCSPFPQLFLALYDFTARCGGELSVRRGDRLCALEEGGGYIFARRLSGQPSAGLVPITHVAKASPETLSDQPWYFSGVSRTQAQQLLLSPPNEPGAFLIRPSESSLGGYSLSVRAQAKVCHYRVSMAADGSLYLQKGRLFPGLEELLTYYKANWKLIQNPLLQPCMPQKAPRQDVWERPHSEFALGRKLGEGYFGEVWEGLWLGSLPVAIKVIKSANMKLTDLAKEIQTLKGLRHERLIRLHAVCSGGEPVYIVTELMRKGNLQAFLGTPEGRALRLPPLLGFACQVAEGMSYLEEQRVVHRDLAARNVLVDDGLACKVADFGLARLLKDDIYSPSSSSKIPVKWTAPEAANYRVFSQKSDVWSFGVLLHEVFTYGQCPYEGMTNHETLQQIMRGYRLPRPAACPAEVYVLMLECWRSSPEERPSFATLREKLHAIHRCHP
T9 sequence (Q9H1R3 whole entry): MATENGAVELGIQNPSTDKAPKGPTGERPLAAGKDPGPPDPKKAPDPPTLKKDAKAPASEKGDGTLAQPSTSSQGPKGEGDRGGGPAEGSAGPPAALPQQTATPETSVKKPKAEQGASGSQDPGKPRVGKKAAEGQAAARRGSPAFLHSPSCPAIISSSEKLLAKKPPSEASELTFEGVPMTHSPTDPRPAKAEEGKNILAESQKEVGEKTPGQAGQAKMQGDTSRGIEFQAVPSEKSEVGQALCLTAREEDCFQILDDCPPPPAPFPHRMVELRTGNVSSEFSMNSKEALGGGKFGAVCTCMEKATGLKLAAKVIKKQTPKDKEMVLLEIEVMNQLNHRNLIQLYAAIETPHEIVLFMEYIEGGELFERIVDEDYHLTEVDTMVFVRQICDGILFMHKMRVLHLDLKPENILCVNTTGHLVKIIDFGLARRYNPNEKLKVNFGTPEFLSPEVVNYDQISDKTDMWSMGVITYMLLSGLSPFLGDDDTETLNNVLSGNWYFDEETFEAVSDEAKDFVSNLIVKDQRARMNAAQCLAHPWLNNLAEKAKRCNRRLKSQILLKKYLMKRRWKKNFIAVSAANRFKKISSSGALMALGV
T5 sequence (P49840 whole entry): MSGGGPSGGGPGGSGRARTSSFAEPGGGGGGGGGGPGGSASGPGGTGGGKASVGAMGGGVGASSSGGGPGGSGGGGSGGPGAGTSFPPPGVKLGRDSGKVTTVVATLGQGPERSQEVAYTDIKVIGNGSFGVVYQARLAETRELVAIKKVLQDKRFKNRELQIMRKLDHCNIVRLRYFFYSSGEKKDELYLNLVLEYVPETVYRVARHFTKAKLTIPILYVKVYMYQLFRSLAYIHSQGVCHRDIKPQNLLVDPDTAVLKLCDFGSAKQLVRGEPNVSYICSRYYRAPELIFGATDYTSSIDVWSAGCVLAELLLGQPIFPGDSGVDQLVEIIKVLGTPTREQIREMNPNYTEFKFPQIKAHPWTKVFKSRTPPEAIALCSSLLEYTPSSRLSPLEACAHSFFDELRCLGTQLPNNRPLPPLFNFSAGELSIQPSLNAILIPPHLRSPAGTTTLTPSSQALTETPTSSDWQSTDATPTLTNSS
T6 sequence (Q07002 whole entry): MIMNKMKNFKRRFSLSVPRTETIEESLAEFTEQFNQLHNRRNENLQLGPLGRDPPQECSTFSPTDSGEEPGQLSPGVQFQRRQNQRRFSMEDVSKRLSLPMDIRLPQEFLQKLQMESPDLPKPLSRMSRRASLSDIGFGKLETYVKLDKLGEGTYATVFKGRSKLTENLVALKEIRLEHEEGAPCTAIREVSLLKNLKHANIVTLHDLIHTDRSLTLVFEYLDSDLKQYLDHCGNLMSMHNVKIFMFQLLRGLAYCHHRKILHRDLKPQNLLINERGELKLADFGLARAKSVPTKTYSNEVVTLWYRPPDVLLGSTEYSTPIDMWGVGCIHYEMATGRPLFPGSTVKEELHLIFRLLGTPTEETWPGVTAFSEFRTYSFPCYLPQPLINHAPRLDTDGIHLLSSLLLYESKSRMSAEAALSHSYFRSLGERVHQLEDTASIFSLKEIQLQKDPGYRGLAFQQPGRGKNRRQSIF
T3 sequence (P07948 whole entry): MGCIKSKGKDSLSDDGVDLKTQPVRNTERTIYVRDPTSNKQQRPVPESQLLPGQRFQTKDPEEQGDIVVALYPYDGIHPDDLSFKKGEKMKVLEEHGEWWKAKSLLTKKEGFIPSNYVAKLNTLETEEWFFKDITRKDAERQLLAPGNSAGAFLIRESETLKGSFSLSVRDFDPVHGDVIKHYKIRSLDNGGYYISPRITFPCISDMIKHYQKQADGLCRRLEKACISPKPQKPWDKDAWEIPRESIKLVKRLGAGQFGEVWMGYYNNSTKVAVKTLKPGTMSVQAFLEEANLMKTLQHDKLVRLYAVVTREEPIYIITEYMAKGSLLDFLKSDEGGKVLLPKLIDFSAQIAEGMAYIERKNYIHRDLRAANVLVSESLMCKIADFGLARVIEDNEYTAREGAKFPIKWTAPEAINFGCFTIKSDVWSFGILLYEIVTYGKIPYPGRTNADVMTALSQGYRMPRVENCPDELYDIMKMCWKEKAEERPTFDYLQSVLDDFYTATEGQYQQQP
T1 sequence (O94921 whole entry): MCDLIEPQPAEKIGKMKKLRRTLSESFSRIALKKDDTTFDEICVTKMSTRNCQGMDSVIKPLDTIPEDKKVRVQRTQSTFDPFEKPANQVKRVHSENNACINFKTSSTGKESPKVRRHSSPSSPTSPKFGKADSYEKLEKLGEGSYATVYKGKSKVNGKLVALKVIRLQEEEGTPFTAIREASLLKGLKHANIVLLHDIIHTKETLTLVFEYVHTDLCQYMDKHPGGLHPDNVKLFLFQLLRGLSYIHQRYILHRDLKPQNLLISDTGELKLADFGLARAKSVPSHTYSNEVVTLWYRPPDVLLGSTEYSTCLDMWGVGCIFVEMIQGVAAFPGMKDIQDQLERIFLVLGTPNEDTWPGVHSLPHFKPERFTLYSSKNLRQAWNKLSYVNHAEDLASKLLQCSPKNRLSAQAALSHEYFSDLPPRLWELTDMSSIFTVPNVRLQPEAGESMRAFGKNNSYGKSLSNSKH
T11 sequence (Q9HC98 whole entry): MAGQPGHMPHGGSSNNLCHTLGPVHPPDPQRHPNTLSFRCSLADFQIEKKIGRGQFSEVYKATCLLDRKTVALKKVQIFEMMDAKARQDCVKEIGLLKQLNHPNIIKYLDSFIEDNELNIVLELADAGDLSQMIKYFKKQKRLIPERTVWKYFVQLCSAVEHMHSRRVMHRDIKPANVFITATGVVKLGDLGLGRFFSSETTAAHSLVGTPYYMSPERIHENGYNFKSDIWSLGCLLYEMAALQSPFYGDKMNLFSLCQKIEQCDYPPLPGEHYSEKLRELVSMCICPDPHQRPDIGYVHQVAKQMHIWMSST

For `CC1(Nc2nc(Nc3cnn([C@H]4CCN(C5COC5)C[C@@H]4F)c3Cl)nc3[nH]cc(C#N)c23)CC1` [Example 52, 2-((5-chloro-1-((3S,4S)-3-fluoro-1-(oxetane-3-yl)piperidine-4-yl)-1H-pyrazole-4-yl)amino)((1-methylcyclopropyl)amino)-7H-pyrrolo[2,3-d]pyrimidine-5-carbonitrile], the remaining binding at 1 µM in test [1] amounted to 100%; in test [2], 53%; in test [3], 36%; in test [4] it was 47%; in test [5] it was 12%; in test [6] it was 81%. Also, the remaining binding at 1 µM in test [7] stood at 15%; in test [8] it was 100%; in [9], 100%; in test [10] it was 41%; in test [11] it was 93%; in test [12], 77%.
As to `CCNc1nc(Nc2ccc(C(=O)N3CCC(N4CCOCC4)CC3)cc2OC)nc2[nH]cc(C(F)(F)F)c12` [Example 104, (4-((4-(ethylamino)-5-(trifluoromethyl)-7H-pyrrolo[2,3-d]pyrimidine-2-yl)amino)-3-methoxyphenyl)(4-morpholinopiperidine-1-yl)methanone], the remaining binding at 1 µM in test [1] was 96%; in test [2], 99%; in test [3], 100%; in [4], 100%; in [5], 100%; in [6] it was 94%. The remaining binding at 1 µM came to 71% in test [7]; 100% in [8]; 100% in test [9]; 66% in [10]; 100% in test [11]; 97% in [12].
`CNc1nc(Nc2ccc(C(=O)N3CCOCC3)cc2OC)nc2[nH]cc(C#N)c12` [Example 1, 2-((2-methoxy-4-(morpholine-4-carbonyl)phenyl)amino)-4-(methylamino)-7H-pyrrolo[2,3-d]pyrimidine-5-carbonitrile]: the remaining binding at 1 µM in test [1] came out at 97%; in [2], 100%; in [3] it was 90%; in [4], 98%; in [5] it was 100%; in test [6] it was 96%. The remaining binding at 1 µM in test [7] is 92%; in test [8], 63%; in test [9] it was 88%; in test [10], 69%; in [11], 95%; in [12], 100%.
